These are literature values, as cited in US5977101A, “Benzimidazoles/Imidazoles Linked to a Fibrinogen Receptor Antagonist Template Having Vitronectin Receptor Antagonist Activity” (SmithKline Beecham Corporation, priority 1996, dated 1999).

The test system of one data set is osteoclasts. As to conditions: Sato et al. 1990; Bertolini et al.
Data set [1] concerns bone resorption. Particulars: Sato et al., J. Cell Biol. 1990.
Data set [2] concerns bone resorption. Particulars: rat; Fisher et al., Endocrinology 1993.

“cylco-S,S-N^α -acetyl-cysteinyl-N^α -methyl-argininyl-glycyl-aspartyl-penicillamine”: the “inhibition of attachment of osteoclasts to bone” value in the data set on osteoclasts was “inhibits”.
Consider echistatin, for which the “inhibition of bone resorption in tissue culture” value with bone resorption [1] is reported as “potent inhibitor”. The “inhibition of attachment of osteoclasts to bone” value in the data set on osteoclasts was “inhibits”. In addition, the “inhibition of bone resorption in vivo” value in the data set with bone resorption [2] is given as “inhibits”.
